Values of other authors in US20140106010A1, “Blend of Green and Black Extracts for the Promotion of Health Benefits” (Kemin Industries, Inc., priority 2012, published 2014).

What was measured:
[1] = tested on: prostate tissue of C57BL/6 mice; settings: 2 weeks decaffeinated black tea extract at 50 mg/g diet
[2] = tested on: ERK1 and ERK2; settings: TRAMP mice, 0.06% EGCG in drinking water, dorsolateral and ventral prostate

| Compound | greater relative absorption into the prostate compared to EGCG [1] [%] | decreased phosphorylation of ERK1 and ERK2 [2] |
| --- | --- | --- |
| O=c1c(O)cc([C@H]2Oc3cc(O)cc(O)c3C[C@H]2O)cc2c([C@H]3Oc4cc(O)cc(O)c4C[C@H]3O)cc(O)c(O)c12 [theaflavin] | 70 |  |
| epigallocatechin-3-gallate [EGCG] |  | about 50% |
